In general, IC50 refers to the concentration at which inhibition is half-maximal.

Assay [1] relates to pSTAT1(2)-luciferase reporter in HeLa cells triggered with human OSM. Description: JAK-STAT signalling assay. It counts as cell-based. The conditions noted are these: Homo sapiens, HeLa, HeLa cells, pSTAT1(2)-luciferase reporter, human OSM 33 ng/mL; read-out: JAK-STAT IC50. As to the method:
JAK-STAT Signalling Assay
HeLa cells were maintained in Dulbecco's Modified Eagle's Medium (DMEM) containing 10% heat inactivated fetal calf serum, 100 U/mL penicillin and 100 μg/mL streptomycin. HeLa cells were used at 70% confluence for transfection. 20,000 cells in 87 μL cell culture medium were transiently transfected with 40 ng pSTAT1(2)-luciferase reporter (Panomics), 8 ng of LacZ reporter as internal control reporter and 52 ng of pBSK using 0.32 μL Jet-PEI (Polyplus) as transfection reagent per well in 96-well plate format. After overnight incubation at 37° C., 5% CO2, transfection medium was removed. 81 μL of DMEM+1.5% heat inactivated fetal calf serum was added. 9 μL compound at 10× concentration was added for 60 min and then 10 μL of human OSM (Peprotech) at 33 ng/mL final concentration.
After overnight incubation at 37° C., 5% CO2 cells were lysed by adding 100 μL lysis buffer/well (PBS, 0.9 mM CaCl2, 0.5 mM MgCl2, 10% Trehalose, 0.05% Tergitol NP9, 0.3% BSA).
40 μL of cell lysate was used to read β-galactosidase activity by adding 180 μL β-Gal solution (30 μL ONPG 4 mg/mL+150 μL β-Galactosidase buffer (0.06 M Na2HPO4, 0.04 M NaH2PO4, 1 mM MgCl2)) for 20 min.
Luciferase activity was measured using 40 μL cell lysate plus 40 μL of Steadylite as described by the manufacturer (Perkin Elmer), on the Envision (Perkin Elmer).
The positive and negative controls were used to calculate z′ and ‘percent inhibition’ (PIN) values.
Percentage inhibition=((fluorescence determined in the presence of vehicle−fluorescence determined for sample with test compound present)divided by(fluorescence determined in the presence of vehicle−fluorescence determined for sample without trigger))*100.
PIN values were plotted for compounds tested in dose-response and EC50 values were derived.
On the technique in general: Reporter assays use an easily measured gene product as a stand-in for the process of interest.

The target of the next assay is T1, human JAK1 (Homo sapiens, UniProt P23458).
T1 construct: catalytic domain, amino acids 866-1154; catalog number PV4774; purchased Invitrogen PV4774
Description: JAK1 inhibition assay (polyGT substrate / Ulight-JAK1 peptide). It is filed as biochemical. To be noted: recombinant human JAK1 catalytic domain; polyGT or Ulight-JAK1 peptide assay. In a few lines:
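Two formats. PolyGT radiometric: 45 min at 30 °C, stopped with phosphoric acid, counted as cpm. Ulight-JAK1 peptide: 60 min at room temperature, stopped with Eu-anti-phosphotyrosine/EDTA, read as RFU. Percent inhibition normalised to vehicle and 10 μM staurosporine.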

The target of the next assay is T2, human JAK3 (Homo sapiens, UniProt P52333).
T2 construct: catalytic domain (amino acids 781-1124; catalog number PV3855); purchased Invitrogen PV3855
Nature of the assay: JAK3 inhibition assay. It counts as biochemical. To be noted: recombinant human JAK3 catalytic domain; polyGT substrate. In a few lines:
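Radiometric kinase assay: 0.5 ng JAK3 with 2.5 μg polyGT in Tris pH 7.5/MgCl2 buffer, 1 μM ATP plus 0.25 μCi 33P-γ-ATP, 1% DMSO, 45 min at 30 °C, stopped with phosphoric acid.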

The target of a further assay is T3, human TYK2 (Homo sapiens, UniProt P29597).
T3 construct: catalytic domain (amino acids 871-1187; catalog number 08-147); purchased Carna Biosciences 08-147
T3 sequence (P29597 871-1187): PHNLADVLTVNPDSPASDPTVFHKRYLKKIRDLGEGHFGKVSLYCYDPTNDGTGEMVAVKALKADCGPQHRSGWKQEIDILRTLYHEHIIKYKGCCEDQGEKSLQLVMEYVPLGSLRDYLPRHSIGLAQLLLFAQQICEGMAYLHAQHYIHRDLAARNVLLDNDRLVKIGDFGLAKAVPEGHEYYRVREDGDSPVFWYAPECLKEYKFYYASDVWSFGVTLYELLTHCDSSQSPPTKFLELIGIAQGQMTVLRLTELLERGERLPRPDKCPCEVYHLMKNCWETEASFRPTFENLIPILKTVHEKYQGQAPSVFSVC
Nature of the assay: TYK2 inhibition assay. To be noted: recombinant human TYK2 catalytic domain, polyGT substrate. It counts as biochemical. Summed up: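 Radiometric kinase reaction run 90 min at 30 °C, stopped with phosphoric acid, washed and scintillation-counted.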

Another assay addresses T4, human JAK2 (Homo sapiens, UniProt O60674).
T4 construct: catalytic domain (amino acids 808-1132; catalog number PV4210); GST; purchased Invitrogen PV4210
Description: JAK2 inhibition assay (polyGT substrate / Ulight-JAK1 peptide). It is filed as biochemical. To be noted: recombinant human JAK2 catalytic domain; polyGT or Ulight-JAK1 peptide assay. Summed up:
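Radiometric: 0.025 mU JAK2 with 2.5 μg polyGT, 1 μM ATP plus ^33P-ATP in MOPS pH 7.5 buffer, 1% DMSO, 90 min at 30° C.; filter counting. Alternative TR-FRET format with Ulight-JAK1 peptide, 60 min at room temperature, Eu-anti-phosphotyrosine detection.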

T2 sequence (P52333 781-1124): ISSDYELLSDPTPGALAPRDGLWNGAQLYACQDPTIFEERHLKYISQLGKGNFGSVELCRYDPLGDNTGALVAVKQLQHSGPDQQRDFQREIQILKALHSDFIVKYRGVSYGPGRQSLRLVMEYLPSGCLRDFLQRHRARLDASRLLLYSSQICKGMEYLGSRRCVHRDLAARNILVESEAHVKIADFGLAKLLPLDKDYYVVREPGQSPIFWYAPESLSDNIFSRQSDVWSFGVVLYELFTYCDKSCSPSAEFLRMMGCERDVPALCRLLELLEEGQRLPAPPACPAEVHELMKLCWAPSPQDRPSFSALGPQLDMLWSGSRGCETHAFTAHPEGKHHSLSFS
T4 sequence (O60674 808-1132): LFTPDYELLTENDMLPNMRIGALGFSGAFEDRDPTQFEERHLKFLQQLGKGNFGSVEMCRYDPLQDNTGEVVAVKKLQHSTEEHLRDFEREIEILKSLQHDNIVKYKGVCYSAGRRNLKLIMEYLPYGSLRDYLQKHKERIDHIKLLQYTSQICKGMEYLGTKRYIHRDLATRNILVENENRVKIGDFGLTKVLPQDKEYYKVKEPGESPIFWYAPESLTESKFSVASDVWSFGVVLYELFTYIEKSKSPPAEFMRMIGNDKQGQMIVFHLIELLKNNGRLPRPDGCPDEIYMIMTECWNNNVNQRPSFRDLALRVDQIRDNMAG
T1 sequence (P23458 866-1154): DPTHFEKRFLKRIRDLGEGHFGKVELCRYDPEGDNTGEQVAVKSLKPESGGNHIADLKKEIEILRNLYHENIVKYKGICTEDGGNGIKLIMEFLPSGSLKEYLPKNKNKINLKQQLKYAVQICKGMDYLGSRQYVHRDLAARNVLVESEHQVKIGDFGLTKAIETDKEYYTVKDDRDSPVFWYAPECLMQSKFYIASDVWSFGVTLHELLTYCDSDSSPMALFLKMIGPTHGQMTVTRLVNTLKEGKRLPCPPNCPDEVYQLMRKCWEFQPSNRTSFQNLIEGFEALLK

Turning to `CCc1cc(-c2nnc(N)s2)ccc1N(C)c1cc2c(cn1)ncn2C` [Compound 193, 5-(3-Ethyl-4-(methyl(1-methyl-1H-imidazo[4,5-c]pyridin-6-yl)amino)phenyl)-1,3,4-thiadiazol-2-amine], the IC50 in assay [1] is above 1000 nM.

As to `CCc1cc(CNC(=O)OC(C)(C)C)ccc1N(C)c1cc2c(cn1)ncn2C` [Compound 252, tert-Butyl 3-ethyl-4-(methyl(1-methyl-1H-imidazo[4,5-c]pyridin-6-yl)amino)benzylcarbamate], in assay [1], the IC50 is above 1000 nM.

`CCc1cc(N2CCC(C#N)C2)ncc1N(C)c1cc2c(cn1)ncn2C` (stereo not drawn) [Compound 418, 1-{4-Ethyl-5-[methyl-(1-methyl-1H-imidazo[4,5-c]pyridin-6-yl)-amino]-pyridin-2-yl}-pyrrolidine-3-carbonitrile]: the IC50 at human JAK1, at human JAK3, on human TYK2 and at human JAK2 was 0.01 to 100 nM each time.

In the case of `Cc1ccc(N(C)c2cc3c(cn2)ncn3C)c(OC(F)F)c1` [Compound 427, (2-Difluoromethoxy-4-methyl-phenyl)-methyl-(1-methyl-1H-imidazo[4,5-c]pyridin-6-yl)-amine], the IC50 on human JAK1 is 0.01 to 100 nM; at human JAK3, above 1000 nM; on human TYK2 it was above 1000 nM; on human JAK2 it was 0.01 to 100 nM.

As for `CN(c1cc2c(cn1)ncn2C)c1ccc(C#N)cc1OC(F)F` [Compound 428, 3-Difluoromethoxy-4-[methyl-(1-methyl-1H-imidazo[4,5-c]pyridin-6-yl)-amino]-benzonitrile], the IC50 is 101 to 500 nM on human JAK1, above 1000 nM at human JAK3, above 1000 nM at human TYK2 and above 1000 nM on human JAK2.

Consider `CCc1ccccc1N(C)c1cc2c(cn1)ncn2C(F)F` [Compound 431, (1-Difluoromethyl-1H-imidazo[4,5-c]pyridin-6-yl)-(2-ethyl-phenyl)-methyl-amine], for which the IC50 at human JAK1 is 101 to 500 nM; at human JAK3 it was 101 to 500 nM; on human TYK2 it was above 1000 nM; at human JAK2, above 1000 nM.

`CCc1cc(N2CC(N)C2)ncc1N(C)c1cc2c(cn1)ncn2C` [Compound 442, [6-(3-Amino-azetidin-1-yl)-4-ethyl-pyridin-3-yl]-methyl-(1-methyl-1H-imidazo[4,5-d]pyridin-6-yl)-amine]: the IC50 is 101 to 500 nM on human JAK1, above 1000 nM at human JAK3, above 1000 nM at human TYK2 and above 1000 nM on human JAK2.

Take `CCc1cc(N2CC(NS(C)(=O)=O)C2)ncc1N(C)c1cc2c(cn1)ncn2C` [Compound 443, N-(1-{4-Ethyl-5-[methyl-(1-methyl-1H-imidazo[4,5-c]pyridin-6-yl)-amino]-pyridin-2-yl}-azetidin-3-yl)-methAnesulfonamide]: the IC50 at human JAK1 was 0.01 to 100 nM; on human JAK3, 101 to 500 nM; at human TYK2 it was 0.01 to 100 nM; at human JAK2 it was 0.01 to 100 nM.

Regarding `CCc1cc(C(C#N)N2CCOCC2)ncc1N(C)c1cc2c(cn1)ncn2C` (stereo not drawn) [Compound 444, {4-Ethyl-5-[methyl-(1-methyl-1H-imidazo[4,5-c]pyridin-6-yl)-amino]-pyridin-2-yl}-morpholin-4-yl-acetonitrile], the IC50 at human JAK1 lay within 0.01 to 100 nM; at human JAK3, 101 to 500 nM; on human TYK2 it was 0.01 to 100 nM; on human JAK2, 0.01 to 100 nM.

Take `CCC(=O)NC1CN(C(C#N)c2ccc(N(C)c3cc4c(cn3)ncn4C)c(CC)c2)C1` (stereo not drawn) [Compound 454, N-[1-(Cyano-{3-ethyl-4-[methyl-(1-methyl-1H-imidazo[4,5-c]pyridin-6-yl)-amino]-phenyl}-methyl)-azetidin-3-yl]-propionamide]: the IC50 on human JAK1 fell in the range of 0.01 to 100 nM; at human JAK3 it was 101 to 500 nM; on human TYK2 it was 0.01 to 100 nM; on human JAK2, 0.01 to 100 nM.

Consider `CCc1cc(C(C#N)N2CC(NS(C)(=O)=O)C2)ccc1N(C)c1cc2c(cn1)ncn2C` (stereo not drawn) [Compound 455, N-[1-(Cyano-{3-ethyl-4-[methyl-(1-methyl-1H-imidazo[4,5-c]pyridin-6-yl)-amino]-phenyl}-methyl)-azetidin-3-yl]-methanesulfonamide], for which the IC50 on human JAK1, on human JAK3, at human TYK2 and on human JAK2 was 0.01 to 100 nM in each case.

Turning to `CCc1ncncc1N(C)c1cc2c(cn1)ncn2C` [Compound 456, (4-Ethyl-pyrimidin-5-yl)-methyl-(1-methyl-1H-imidazo[4,5-c]pyridin-6-yl)-amine], the half-inhibitory concentration (IC50) at human JAK1, at human JAK3, on human TYK2 and at human JAK2 was above 1000 nM each time.

`CCc1nc(C2CN(C(=O)OC(C)(C)C)C2)cnc1N(C)c1cc2c(cn1)ncn2C` [Compound 457, 3-{6-Ethyl-5-[methyl-(1-methyl-1H-imidazo[4,5-c]pyridin-6-yl)-amino]-pyrazin-2-yl}-azetidine-1-carboxylic acid tert-butyl ester]: the IC50 at human JAK1, at human JAK3, on human TYK2 and at human JAK2 was above 1000 nM in each case.

In the case of `CCc1cc(C2(C#N)CN(S(C)(=O)=O)C2)ncc1N(C)c1cc2c(cn1)ncn2C` [Compound 458, 3-{4-Ethyl-5-[methyl-(1-methyl-1H-imidazo[4,5-c]pyridin-6-yl)-amino]-pyridin-2-yl}-1-methanesulfonyl-azetidine-3-carbonitrile], the IC50 at human JAK1 fell in the range of 0.01 to 100 nM; on human JAK3 it was 501 to 1000 nM; on human TYK2, 501 to 1000 nM; at human JAK2, 101 to 500 nM.

With `CCc1ccccc1N(CCN1CCCC1)c1cc2c(cn1)ncn2C` [Compound 459, N-(2-ethylphenyl)-1-methyl-N-(2-(pyrrolidin-1-yl)ethyl)-1H-imidazo[4,5-c]pyridin-6-amine], the IC50 on human JAK1 was 101 to 500 nM; at human JAK3 it was above 1000 nM; on human TYK2, above 1000 nM; at human JAK2, above 1000 nM.

For `CCc1ccccc1N(CCN1CCOCC1)c1cc2c(cn1)ncn2C` [Compound 460, N-(2-ethylphenyl)-1-methyl-N-(2-morpholinoethyl)-1H-imidazo[4,5-c]pyridin-6-amine], the IC50 at human JAK1 was 101 to 500 nM; at human JAK3 it was above 1000 nM; on human TYK2, above 1000 nM; on human JAK2, above 1000 nM.

Consider `CCc1ccccc1N(Cc1ccccn1)c1cc2c(cn1)ncn2C` [Compound 461, N-(2-ethylphenyl)-1-methyl-N-(pyridin-2-ylmethyl)-1H-imidazo[4,5-c]pyridin-6-amine], for which the IC50 at human JAK1, at human JAK3, at human TYK2 and on human JAK2 was above 1000 nM each time.

Regarding `CCc1ccccc1N(Cc1cccnc1)c1cc2c(cn1)ncn2C` [Compound 462, N-(2-ethylphenyl)-1-methyl-N-(pyridin-3-ylmethyl)-1H-imidazo[4,5-c]pyridin-6-amine], the concentration for half-maximal inhibition (IC50) at human JAK1 was 501 to 1000 nM; on human JAK3 it was above 1000 nM; at human TYK2, above 1000 nM; on human JAK2 it was above 1000 nM.

The record behind these values is patent US20130217664A1, “NOVEL COMPOUNDS USEFUL FOR THE TREATMENT OF DEGENERATIVE AND INFLAMMATORY DISEASES” (priority 2012, published 2013).
